Measurements reported in ChEMBL document CHEMBL1201862, “PubChem BioAssay data set” (2004).
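1) Cells in 96-well plates. 2) Compound, 48 h, 5 concentrations. 3) Linear interpolation between surrounding doses. 4) Unreached endpoint = highest concentration. Here, GI50 denotes the concentration required for 50% inhibition of growth.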 Calls of active or inactive are those of the source. Rule as the data show it: active = GI50 up to about 1.1 µM and inactive = higher.

How the values were obtained:
Assay in all cases: inhibition of tumour cell growth, NCI panel, 48 h
[1] = system: 786-0
[2] = system: A498
[3] = system: ACHN
[4] = system: CAKI-1
[5] = system: DU-145
[6] = system: PC-3
[7] = system: RPMI-8226
[8] = system: RXF 393
[9] = system: SN12C
[10] = system: TK-10
[11] = system: UO-31
[12] = system: A549
[13] = system: COLO 205
[14] = system: EKVX
[15] = system: HCC 2998
[16] = system: HCT-116
[17] = system: HCT-15
[18] = system: HL-60
[19] = system: HOP-62
[20] = system: HOP-92
[21] = system: HT-29
[22] = system: Hs-578T
[23] = system: IGROV-1
[24] = system: K562
[25] = system: KM12
[26] = system: M14
[27] = system: MCF7
[28] = system: MDA-MB-231
[29] = system: MOLT-4
[30] = system: Malme-3M
[31] = system: NCI-H226
[32] = system: NCI-H23
[33] = system: NCI-H460
[34] = system: NCI-H522
[35] = system: NCI/ADR-RES
[36] = system: OVCAR-4
[37] = system: OVCAR-5
[38] = system: OVCAR-8
[39] = system: SF-268
[40] = system: SF-539
[41] = system: SK-MEL-28
[42] = system: SK-MEL-2
[43] = system: SK-MEL-5
[44] = system: SK-OV-3
[45] = system: SNB-19
[46] = system: SNB-75
[47] = system: SR
[48] = system: SW-620
[49] = system: T47D
[50] = system: U-251
[51] = system: UACC-257
[52] = system: UACC-62
[53] = system: CCRF-CEM
[54] = system: LOX IMVI
[55] = system: MDA-MB-435
[56] = system: MDA-N
[57] = system: OVCAR-3
[58] = system: SF-295

COc1cc(OC)cc(Oc2nc3cc(N)cc(N)c3nc2-c2ccccc2)c1
GI50 [1]: 2.19 µM (inactive)
GI50 [2]: 1.95 µM (inactive)
GI50 [3]: 4.25 µM (inactive)
GI50 [4]: 4.19 µM (inactive)
GI50 [5]: 4.52 µM (inactive)
GI50 [6]: 3.85 µM (inactive)
GI50 [7]: 2.86 µM (inactive)
GI50 [8]: 1.02 µM (active)
GI50 [9]: 4.4 µM (inactive)
GI50 [10]: 1.73 µM (inactive)
GI50 [11]: 3.44 µM (inactive)

O=C(CSCC(=O)N/N=C/c1ccc(F)cc1)N/N=C/c1ccc(F)cc1
GI50 [1]: > 100 µM (inactive)
GI50 [2]: 38.2 µM (inactive)
GI50 [12]: 54.8 µM (inactive)
GI50 [3]: > 100 µM (inactive)
GI50 [13]: > 100 µM (inactive)
GI50 [5]: > 100 µM (inactive)
GI50 [14]: > 100 µM (inactive)
GI50 [15]: 66.8 µM (inactive)
GI50 [16]: > 100 µM (inactive)
GI50 [17]: > 100 µM
GI50 [18]: > 100 µM (inactive)
GI50 [19]: > 100 µM (inactive)
GI50 [20]: > 100 µM (inactive)
GI50 [21]: > 100 µM (inactive)
GI50 [22]: > 100 µM (inactive)
GI50 [23]: > 100 µM (inactive)
GI50 [24]: 57.1 µM (inactive)
GI50 [25]: > 100 µM (inactive)
GI50 [26]: 76.6 µM (inactive)
GI50 [27]: 46.6 µM (inactive)
GI50 [28]: > 100 µM (inactive)
GI50 [29]: 25.2 µM (inactive)
GI50 [30]: > 100 µM (inactive)
GI50 [31]: > 100 µM (inactive)
GI50 [32]: > 100 µM (inactive)
GI50 [33]: > 100 µM (inactive)
GI50 [34]: 65.9 µM (inactive)
GI50 [35]: > 100 µM (inactive)
GI50 [36]: > 100 µM (inactive)
GI50 [37]: > 100 µM (inactive)
GI50 [38]: > 100 µM (inactive)
GI50 [6]: 66.2 µM (inactive)
GI50 [7]: 60.8 µM (inactive)
GI50 [8]: 85.1 µM (inactive)
GI50 [39]: > 100 µM (inactive)
GI50 [40]: > 100 µM (inactive)
GI50 [41]: > 100 µM (inactive)
GI50 [42]: > 100 µM (inactive)
GI50 [43]: > 100 µM (inactive)
GI50 [44]: > 100 µM (inactive)
GI50 [9]: > 100 µM (inactive)
GI50 [45]: > 100 µM (inactive)
GI50 [46]: > 100 µM (inactive)
GI50 [47]: > 100 µM (inactive)
GI50 [48]: > 100 µM (inactive)
GI50 [49]: > 100 µM (inactive)
GI50 [10]: > 100 µM (inactive)
GI50 [50]: > 100 µM (inactive)
GI50 [51]: > 100 µM (inactive)
GI50 [52]: > 100 µM (inactive)
GI50 [11]: 48.6 µM (inactive)

CC(Nc1ncc2c(n1)-c1ccccc1OC2)C(=O)O (stereo unspecified)
GI50 [1]: > 100 µM (inactive)
GI50 [12]: > 100 µM (inactive)
GI50 [3]: > 100 µM (inactive)
GI50 [4]: 30.8 µM (inactive)
GI50 [53]: > 100 µM (inactive)
GI50 [13]: 35.6 µM (inactive)
GI50 [5]: 30.3 µM (inactive)
GI50 [14]: 44.1 µM (inactive)
GI50 [16]: > 100 µM (inactive)
GI50 [17]: 85.9 µM
GI50 [18]: 6.89 µM (inactive)
GI50 [19]: 51.6 µM (inactive)
GI50 [20]: 35.9 µM (inactive)
GI50 [21]: 39.5 µM (inactive)
GI50 [22]: 82.4 µM (inactive)
GI50 [23]: 25.2 µM (inactive)
GI50 [24]: 99.8 µM (inactive)
GI50 [25]: > 100 µM (inactive)
GI50 [54]: > 100 µM (inactive)
GI50 [26]: > 100 µM (inactive)
GI50 [27]: 42.9 µM (inactive)
GI50 [28]: 92.7 µM (inactive)
GI50 [55]: > 100 µM (inactive)
GI50 [56]: > 100 µM (inactive)
GI50 [29]: > 100 µM (inactive)
GI50 [30]: > 100 µM (inactive)
GI50 [31]: 61.7 µM (inactive)
GI50 [32]: 86.5 µM (inactive)
GI50 [33]: > 100 µM (inactive)
GI50 [35]: > 100 µM (inactive)
GI50 [57]: 27.9 µM (inactive)
GI50 [36]: > 100 µM (inactive)
GI50 [37]: > 100 µM (inactive)
GI50 [38]: > 100 µM (inactive)
GI50 [6]: > 100 µM (inactive)
GI50 [7]: 34.2 µM (inactive)
GI50 [8]: > 100 µM (inactive)
GI50 [39]: > 100 µM (inactive)
GI50 [58]: > 100 µM (inactive)
GI50 [40]: > 100 µM (inactive)
GI50 [41]: > 100 µM (inactive)
GI50 [42]: > 100 µM (inactive)
GI50 [43]: > 100 µM (inactive)
GI50 [44]: > 100 µM (inactive)
GI50 [9]: 59.7 µM (inactive)
GI50 [45]: > 100 µM (inactive)
GI50 [46]: 40.7 µM (inactive)
GI50 [47]: 48.5 µM (inactive)
GI50 [48]: > 100 µM (inactive)
GI50 [10]: > 100 µM (inactive)
GI50 [50]: > 100 µM (inactive)
GI50 [51]: 60.3 µM (inactive)
GI50 [52]: > 100 µM (inactive)
GI50 [11]: 41.2 µM (inactive)

COC(=O)N1CC2(CO)C3CC=C(C(=O)Nc4ccccc4Br)C2C1C3Br (stereo unspecified)
GI50 [1]: > 50 µM (inactive)
GI50 [2]: > 50 µM (inactive)
GI50 [12]: > 50 µM (inactive)
GI50 [3]: > 50 µM (inactive)
GI50 [4]: > 50 µM (inactive)
GI50 [53]: > 50 µM (inactive)
GI50 [13]: > 50 µM (inactive)
GI50 [5]: > 50 µM (inactive)
GI50 [14]: > 50 µM (inactive)
GI50 [15]: > 50 µM (inactive)
GI50 [17]: > 50 µM
GI50 [18]: > 50 µM (inactive)
GI50 [19]: > 50 µM (inactive)
GI50 [20]: > 50 µM (inactive)
GI50 [21]: > 50 µM (inactive)
GI50 [22]: > 50 µM (inactive)
GI50 [23]: > 50 µM (inactive)
GI50 [24]: > 50 µM (inactive)
GI50 [25]: > 50 µM (inactive)
GI50 [54]: > 50 µM (inactive)
GI50 [26]: > 50 µM (inactive)
GI50 [27]: > 50 µM (inactive)
GI50 [28]: > 50 µM (inactive)
GI50 [55]: > 50 µM (inactive)
GI50 [56]: > 50 µM (inactive)
GI50 [29]: > 50 µM (inactive)
GI50 [30]: > 50 µM (inactive)
GI50 [31]: > 50 µM (inactive)
GI50 [32]: > 50 µM (inactive)
GI50 [33]: > 50 µM (inactive)
GI50 [35]: > 50 µM (inactive)
GI50 [57]: > 50 µM (inactive)
GI50 [36]: > 50 µM (inactive)
GI50 [37]: > 50 µM (inactive)
GI50 [38]: > 50 µM (inactive)
GI50 [6]: > 50 µM (inactive)
GI50 [7]: > 50 µM (inactive)
GI50 [8]: > 50 µM (inactive)
GI50 [39]: > 50 µM (inactive)
GI50 [58]: > 50 µM (inactive)
GI50 [40]: > 50 µM (inactive)
GI50 [41]: > 50 µM (inactive)
GI50 [42]: > 50 µM (inactive)
GI50 [43]: > 50 µM (inactive)
GI50 [44]: > 50 µM (inactive)
GI50 [45]: > 50 µM (inactive)
GI50 [46]: > 50 µM (inactive)
GI50 [47]: > 50 µM (inactive)
GI50 [48]: > 50 µM (inactive)
GI50 [49]: > 50 µM (inactive)
GI50 [10]: > 50 µM (inactive)
GI50 [50]: > 50 µM (inactive)
GI50 [51]: > 50 µM (inactive)
GI50 [52]: > 50 µM (inactive)
GI50 [11]: > 50 µM (inactive)
